Measurements from PubChem BioAssay (NCI).
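1) Cells in 96-well plates. 2) Compound, 48 h, 5 concentrations. 3) Linear interpolation between surrounding doses. 4) Unreached endpoint = highest concentration. Abbreviation: GI50, concentration required for 50% inhibition of growth. TGI: concentration producing complete growth inhibition.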

Key:
Assay in all cases: growth of human tumour cells (NCI), 48 h
[1] = system: NCI-H460 lung
[2] = system: OVCAR-3 ovarian
[3] = system: OVCAR-8 ovarian
[4] = system: COLO 205 colon
[5] = system: HT29 colon
[6] = system: MOLT-4 leukemia
[7] = system: DU-145 prostate
[8] = system: RPMI-8226 leukemia
[9] = system: CAKI-1 renal
[10] = system: KM12 colon
[11] = system: MDA-MB-435
[12] = system: HCC-2998 colon
[13] = system: HCT-15 colon
[14] = system: SR leukemia
[15] = system: CCRF-CEM leukemia
[16] = system: SK-MEL-2 melanoma
[17] = system: PC-3 prostate
[18] = system: MALME-3M melanoma
[19] = system: T-47D breast
[20] = system: SK-MEL-28 melanoma
[21] = system: NCI-H522 lung
[22] = system: NCI-H23 lung
[23] = system: OVCAR-5 ovarian
[24] = system: K-562 leukemia
[25] = system: TK-10 renal
[26] = system: MCF7 breast
[27] = system: SK-OV-3 ovarian
[28] = system: SW-620 colon
[29] = system: MDA-MB-231 breast
[30] = system: LOX IMVI melanoma
[31] = system: HL-60(TB) leukemia
[32] = system: SK-MEL-5 melanoma
[33] = system: EKVX NSCLC
[34] = system: SN12C renal
[35] = system: NCI/ADR-RES ovarian
[36] = system: UO-31 renal
[37] = system: HOP-92 NSCLC
[38] = system: M14 melanoma
[39] = system: ACHN renal
[40] = system: SF-295 CNS
[41] = system: SF-268 CNS
[42] = system: UACC-257 melanoma
[43] = system: OVCAR-4 ovarian
[44] = system: HCT-116 colon
[45] = system: IGROV1 ovarian
[46] = system: SNB-19 CNS
[47] = system: A549 NSCLC
[48] = system: UACC-62 melanoma
[49] = system: SF-539 CNS
[50] = system: 786-0 renal
[51] = system: A498 renal
[52] = system: NCI-H226 lung
[53] = system: SNB-75 CNS
[54] = system: U251 CNS
[55] = system: HS 578T breast
[56] = system: RXF 393 renal
[57] = system: HOP-62 NSCLC

O=C1CSC2=NC3=C(CSC/C3=C\c3ccc(Cl)cc3)C(c3ccc(Cl)cc3)N12 (stereo unspecified)
TGI [1]: > 100 µM
TGI [2]: 67 µM
TGI [3]: 43.3 µM
TGI [4]: > 100 µM
TGI [5]: > 100 µM
TGI [6]: 43.4 µM
TGI [7]: > 100 µM
TGI [8]: > 100 µM
TGI [9]: > 100 µM
TGI [10]: 79.1 µM
TGI [11]: 66 µM
TGI [12]: 89.2 µM
TGI [13]: 80.2 µM
TGI [14]: 56.3 µM
TGI [15]: > 100 µM
TGI [16]: 52.3 µM
TGI [17]: > 100 µM
TGI [18]: > 100 µM
TGI [19]: > 100 µM
TGI [20]: 81.9 µM
TGI [21]: 36.3 µM
TGI [22]: > 100 µM
TGI [23]: > 100 µM
TGI [24]: > 100 µM
TGI [25]: > 100 µM
TGI [26]: 87.2 µM
TGI [27]: > 100 µM
TGI [28]: 62.3 µM
TGI [29]: > 100 µM
TGI [30]: 28.7 µM
TGI [31]: > 100 µM
TGI [32]: 29.3 µM
TGI [33]: > 100 µM
TGI [34]: 39.2 µM
TGI [35]: > 100 µM
TGI [36]: 29.3 µM
TGI [37]: 39.9 µM
TGI [38]: > 100 µM
TGI [39]: > 100 µM
TGI [40]: 47.6 µM
TGI [41]: > 100 µM
TGI [42]: 85.9 µM
TGI [43]: 67.1 µM
TGI [44]: 29 µM
TGI [45]: > 100 µM
TGI [46]: > 100 µM
TGI [47]: > 100 µM
TGI [48]: > 100 µM

N#C/C(=C1C=C/C(=N/O)C(Cl)=C/1)c1ccc(Cl)cc1
GI50 [1]: 3.8 µM
TGI [1]: 15.2 µM
GI50 [2]: 3.97 µM
TGI [2]: 13.7 µM
GI50 [3]: 12.3 µM
TGI [3]: 51.9 µM
GI50 [4]: 12.2 µM
TGI [4]: 31.1 µM
GI50 [49]: 3.16 µM
TGI [49]: 11.9 µM
GI50 [5]: 5.46 µM
TGI [5]: 19.8 µM
GI50 [6]: 2.35 µM
TGI [6]: 7.65 µM
GI50 [7]: 1.98 µM
TGI [7]: 4.1 µM
GI50 [8]: 1.61 µM
TGI [8]: 11.8 µM
GI50 [9]: 3.63 µM
TGI [9]: 14.1 µM
GI50 [10]: 0.721 µM
TGI [10]: 10.1 µM
GI50 [11]: 1.96 µM
TGI [11]: 8.45 µM
GI50 [12]: 19.1 µM
TGI [12]: 38.4 µM
GI50 [13]: 6.67 µM
TGI [13]: 77.7 µM
GI50 [14]: 1.36 µM
TGI [14]: 4.05 µM
GI50 [15]: 1.96 µM
TGI [15]: 6.93 µM
GI50 [16]: 7.8 µM
TGI [16]: 24.8 µM
GI50 [50]: 5.16 µM
TGI [50]: 19.1 µM
GI50 [17]: 4.99 µM
TGI [17]: 71.1 µM
GI50 [18]: 12.2 µM
TGI [18]: 29.3 µM
GI50 [20]: 30.1 µM
TGI [20]: > 100 µM
GI50 [21]: 4.12 µM
TGI [21]: 15.7 µM
GI50 [22]: 25.9 µM
TGI [22]: > 100 µM
GI50 [23]: 12.7 µM
TGI [23]: 43.4 µM
GI50 [24]: 1.16 µM
TGI [24]: 8.51 µM
GI50 [25]: 5.25 µM
TGI [25]: 20.2 µM
GI50 [51]: 3.07 µM
TGI [51]: 20.4 µM
GI50 [26]: 2.42 µM
TGI [26]: 8.89 µM
GI50 [27]: 15.7 µM
TGI [27]: 41.6 µM
GI50 [52]: 7.59 µM
TGI [52]: 27.3 µM
GI50 [28]: 3.79 µM
TGI [28]: 15.1 µM
GI50 [53]: 3.78 µM
TGI [53]: 18.4 µM
GI50 [29]: 7.24 µM
TGI [29]: 23.4 µM
GI50 [30]: 2.62 µM
TGI [30]: 10.3 µM
GI50 [54]: 5.7 µM
TGI [54]: 20 µM
GI50 [31]: 1.24 µM
TGI [31]: 5 µM
GI50 [32]: 16.5 µM
TGI [32]: 40.3 µM
GI50 [33]: 10.4 µM
TGI [33]: 59.2 µM
GI50 [34]: 2.99 µM
TGI [34]: 8.02 µM
GI50 [35]: 4.7 µM
TGI [35]: 26.1 µM
GI50 [36]: 3.33 µM
TGI [36]: 13 µM
GI50 [37]: 7.92 µM
TGI [37]: 51.1 µM
GI50 [38]: 11.5 µM
TGI [38]: 31.6 µM
GI50 [39]: 4.47 µM
TGI [39]: 18.4 µM
GI50 [40]: 4.08 µM
TGI [40]: 14.4 µM
GI50 [41]: 3.66 µM
TGI [41]: 14.7 µM
GI50 [42]: 21.2 µM
TGI [42]: > 100 µM
GI50 [55]: 6.65 µM
TGI [55]: 44.3 µM
GI50 [43]: 17 µM
TGI [43]: 91.2 µM
GI50 [44]: 1.82 µM
TGI [44]: 4.39 µM
GI50 [45]: 2.66 µM
TGI [45]: 7.89 µM
GI50 [56]: 13.5 µM
TGI [56]: 36.1 µM
GI50 [46]: 18.4 µM
TGI [46]: > 100 µM
GI50 [47]: 15.6 µM
TGI [47]: 46.4 µM
GI50 [57]: 4.29 µM
TGI [57]: 19.1 µM
GI50 [48]: 4.01 µM
TGI [48]: 18 µM

CC(C)(C)C(=O)OCCNc1nc(-c2ccccc2)nc2ccccc12
GI50 [1]: 16.6 µM
TGI [1]: 34.7 µM
GI50 [2]: 3.68 µM
TGI [2]: 19.3 µM
GI50 [3]: 13.5 µM
TGI [3]: 42.8 µM
GI50 [4]: 16.2 µM
TGI [4]: 37.9 µM
GI50 [6]: 2.1 µM
TGI [6]: 19 µM
GI50 [7]: 13.3 µM
TGI [7]: 26.1 µM
GI50 [8]: 3.7 µM
TGI [8]: 25.7 µM
GI50 [9]: 11.6 µM
TGI [9]: 23.8 µM
GI50 [10]: 3.94 µM
TGI [10]: 17.4 µM
GI50 [11]: 15.7 µM
TGI [11]: 29.1 µM
GI50 [12]: 16.4 µM
TGI [12]: 29.9 µM
GI50 [13]: 12.3 µM
TGI [13]: 24.8 µM
GI50 [14]: 5.44 µM
TGI [14]: 61.5 µM
GI50 [15]: 12.7 µM
TGI [15]: 35 µM
GI50 [16]: 31.1 µM
TGI [16]: > 100 µM
GI50 [50]: 3.4 µM
TGI [50]: 19 µM
GI50 [17]: 15.6 µM
TGI [17]: 32.6 µM
GI50 [19]: 22.5 µM
TGI [19]: 93.3 µM
GI50 [20]: 18.3 µM
TGI [20]: 40.1 µM
GI50 [21]: 27.5 µM
TGI [21]: > 100 µM
GI50 [22]: 12.1 µM
TGI [22]: 24.5 µM
GI50 [23]: 14.6 µM
TGI [23]: 27.8 µM
GI50 [24]: 2.11 µM
TGI [24]: 10.9 µM
GI50 [25]: 11 µM
TGI [25]: 23 µM
GI50 [51]: 15.1 µM
TGI [51]: 29 µM
GI50 [26]: 17.3 µM
TGI [26]: 43.2 µM
GI50 [27]: 17.7 µM
TGI [27]: 38.9 µM
GI50 [52]: 20.2 µM
TGI [52]: 67.1 µM
GI50 [30]: 10.3 µM
TGI [30]: 22 µM
GI50 [54]: 11.5 µM
TGI [54]: 23.6 µM
GI50 [32]: 15.5 µM
TGI [32]: 28.8 µM
GI50 [34]: 15.1 µM
TGI [34]: 28.4 µM
GI50 [35]: 16.6 µM
TGI [35]: 51.6 µM
GI50 [36]: 13.2 µM
TGI [36]: 36.1 µM
GI50 [37]: 12.6 µM
TGI [37]: 29 µM
GI50 [38]: 7.57 µM
TGI [38]: 20.5 µM
GI50 [39]: 13.6 µM
TGI [39]: 26.5 µM
GI50 [40]: 10.7 µM
TGI [40]: 22.5 µM
GI50 [41]: 16.8 µM
TGI [41]: 35.7 µM
GI50 [55]: 11.5 µM
TGI [55]: 25.6 µM
GI50 [43]: 23.3 µM
TGI [43]: 73.1 µM
GI50 [44]: 11.5 µM
TGI [44]: 23.7 µM
GI50 [45]: 29.5 µM
TGI [45]: > 100 µM
GI50 [56]: 15.4 µM
TGI [56]: 32 µM
GI50 [46]: 17.3 µM
TGI [46]: 34.9 µM
GI50 [47]: 16.8 µM
TGI [47]: 39.5 µM
GI50 [57]: 13 µM
TGI [57]: 25.6 µM
GI50 [48]: 14.5 µM
TGI [48]: 27.5 µM
